According to paper PMC12274840 (The Journal of Biological Chemistry, 2025):
In brackets after ≈: the same amount, converted by molar mass. Like-named read-outs stand apart in the source and are kept apart here.

How the values were obtained:
Assay type in all cases: cell-based
[1] = tested on: E. coli KA797 cells carrying pUK21 with BlaC WT (Tat); assay: microbe, parasite or virus in culture; conditions: Escherichia coli, antibiotic alone
[2] = tested on: E. coli KA797 cells carrying pUK21 with KPC-2 (Tat); assay: microbe, parasite or virus in culture; conditions: Escherichia coli, antibiotic alone
[3] = tested on: E. coli KA797 cells carrying CTX-M-14 position 105 library; conditions: CTX-M-14 WT (Tyr 105)
[4] = tested on: E. coli KA797 cells carrying KPC-2 position 105 library; conditions: selection with labelled antibiotic
[5] = tested on: E. coli KA797 cells carrying NmcA position 105 library
[6] = KPC-2 AA 105 = Trp (WT, reference)

C[C@@H](O)[C@H]1C(=O)N2C(C(=O)O)=C(S[C@@H]3CN[C@H](C(=O)N(C)C)C3)[C@H](C)[C@H]12 [meropenem]
MIC [1]: 0.1 µg/mL (≈ 0.261 µM)
MIC [2]: 0.4 µg/mL (≈ 1.04 µM)
WT abs Fi 1 (absolute fitness of wild type, Replicate 1) [3]: -0.645
WT abs Fi 2 (absolute fitness of wild type, Replicate 2) [3]: -0.807
Fi (relative fitness), Replicate 1 ([4]; KPC-2 AA 105 = Ala): 0.581
Fi AVG (average fitness of replicates) ([4]; KPC-2 AA 105 = Ala): 0.217
Fi (relative fitness), Replicate 1 ([4]; KPC-2 AA 105 = Arg): 0.240
Fi AVG (average fitness of replicates) ([4]; KPC-2 AA 105 = Arg): 0.280
Significance of average fitness ([4]; KPC-2 AA 105 = Arg): +
Fi (relative fitness), Replicate 1 ([4]; KPC-2 AA 105 = Asn): 0.449
Fi AVG (average fitness of replicates) ([4]; KPC-2 AA 105 = Asn): 0.201
Fi (relative fitness), Replicate 1 ([4]; KPC-2 AA 105 = Asp): -0.690
Fi AVG (average fitness of replicates) ([4]; KPC-2 AA 105 = Asp): -0.489
Fi (relative fitness), Replicate 1 ([4]; KPC-2 AA 105 = Cys): -0.271
Fi AVG (average fitness of replicates) ([4]; KPC-2 AA 105 = Cys): -0.750
Significance of average fitness ([4]; KPC-2 AA 105 = Cys): -
Fi (relative fitness), Replicate 1 ([4]; KPC-2 AA 105 = Gln): -0.624
Fi AVG (average fitness of replicates) ([4]; KPC-2 AA 105 = Gln): -1.307
Significance of average fitness ([4]; KPC-2 AA 105 = Gln): -
Fi (relative fitness), Replicate 1 ([4]; KPC-2 AA 105 = Glu): -0.509
Fi AVG (average fitness of replicates) ([4]; KPC-2 AA 105 = Glu): -0.226
Fi AVG (average fitness of replicates) ([4]; KPC-2 AA 105 = Gly): -0.037
Fi (relative fitness), Replicate 1 ([4]; KPC-2 AA 105 = His): -1.077
Fi AVG (average fitness of replicates) ([4]; KPC-2 AA 105 = His): -0.525
Fi (relative fitness), Replicate 1 ([4]; KPC-2 AA 105 = Ile): 0.107
Fi AVG (average fitness of replicates) ([4]; KPC-2 AA 105 = Ile): 0.391
Significance of average fitness ([4]; KPC-2 AA 105 = Ile): +
Fi (relative fitness), Replicate 1 ([4]; KPC-2 AA 105 = Leu): -0.731
Fi AVG (average fitness of replicates) ([4]; KPC-2 AA 105 = Leu): -0.210
Fi (relative fitness), Replicate 1 ([4]; KPC-2 AA 105 = Lys): 0.268
Fi AVG (average fitness of replicates) ([4]; KPC-2 AA 105 = Lys): -0.089
Fi (relative fitness), Replicate 1 ([4]; KPC-2 AA 105 = Met): -1.083
Fi AVG (average fitness of replicates) ([4]; KPC-2 AA 105 = Met): -0.791
Fi (relative fitness), Replicate 1 ([4]; KPC-2 AA 105 = Phe): -0.159
Fi AVG (average fitness of replicates) ([4]; KPC-2 AA 105 = Phe): 0.248
Fi (relative fitness), Replicate 1 ([4]; KPC-2 AA 105 = Pro): -0.148
Fi AVG (average fitness of replicates) ([4]; KPC-2 AA 105 = Pro): -1.195
Significance of average fitness ([4]; KPC-2 AA 105 = Pro): -
Fi (relative fitness), Replicate 1 ([4]; KPC-2 AA 105 = Ser): 0.279
Fi AVG (average fitness of replicates) ([4]; KPC-2 AA 105 = Ser): -0.239
Fi AVG (average fitness of replicates) ([4]; KPC-2 AA 105 = Thr): -0.051
Fi (relative fitness), Replicate 1 [4, 6]: 0.000
Fi AVG (average fitness of replicates) [4, 6]: 0.000
Fi (relative fitness), Replicate 1 ([4]; KPC-2 AA 105 = Tyr): 0.109
Fi AVG (average fitness of replicates) ([4]; KPC-2 AA 105 = Tyr): -0.474
Fi (relative fitness), Replicate 1 ([4]; KPC-2 AA 105 = Val): -1.754
Fi AVG (average fitness of replicates) ([4]; KPC-2 AA 105 = Val): -0.973
WT abs Fi 1 (absolute fitness) ([4]; KPC-2 WT (Trp 105), replicate 1): 0.081
WT abs Fi 2 (absolute fitness) ([4]; KPC-2 WT (Trp 105), replicate 2): -0.069
WT abs Fi 3 (absolute fitness) ([4]; KPC-2 WT (Trp 105), replicate 3): 0.298
Fi (relative fitness), Replicate 1 ([5]; NmcA AA 105 Ala): -0.381
Fi AVG (average fitness of replicates) ([5]; NmcA AA 105 Ala): -0.261
Significance of average fitness ([5]; NmcA AA 105 Ala): -
Fi (relative fitness), Replicate 1 ([5]; NmcA AA 105 Arg): 0.092
Fi AVG (average fitness of replicates) ([5]; NmcA AA 105 Arg): 0.048
Fi (relative fitness), Replicate 1 ([5]; NmcA AA 105 Asn): 0.031
Fi AVG (average fitness of replicates) ([5]; NmcA AA 105 Asn): 0.087
Fi (relative fitness), Replicate 1 ([5]; NmcA AA 105 Asp): -0.205
Fi AVG (average fitness of replicates) ([5]; NmcA AA 105 Asp): -0.182
Significance of average fitness ([5]; NmcA AA 105 Asp): -
Fi (relative fitness), Replicate 1 ([5]; NmcA AA 105 Cys): -0.468
Fi AVG (average fitness of replicates) ([5]; NmcA AA 105 Cys): -0.282
Significance of average fitness ([5]; NmcA AA 105 Cys): -
Fi (relative fitness), Replicate 1 ([5]; NmcA AA 105 Gln): 0.037
Fi AVG (average fitness of replicates) ([5]; NmcA AA 105 Gln): 0.055
Fi (relative fitness), Replicate 1 ([5]; NmcA AA 105 Glu): -0.016
Fi AVG (average fitness of replicates) ([5]; NmcA AA 105 Glu): -0.061
Fi (relative fitness), Replicate 1 ([5]; NmcA AA 105 Gly): 0.015
Fi AVG (average fitness of replicates) ([5]; NmcA AA 105 Gly): -0.027
Fi (relative fitness), Replicate 1 ([5]; NmcA AA 105 His): 0.000
Fi AVG (average fitness of replicates) ([5]; NmcA AA 105 His): 0.000
Fi AVG (average fitness of replicates) ([5]; NmcA AA 105 Ile): 0.105
Significance of average fitness ([5]; NmcA AA 105 Ile): +
Fi (relative fitness), Replicate 1 ([5]; NmcA AA 105 Leu): -0.100
Fi AVG (average fitness of replicates) ([5]; NmcA AA 105 Leu): -0.100
Significance of average fitness ([5]; NmcA AA 105 Leu): -
Fi (relative fitness), Replicate 1 ([5]; NmcA AA 105 Lys): -0.081
Fi AVG (average fitness of replicates) ([5]; NmcA AA 105 Lys): -0.032
Fi (relative fitness), Replicate 1 ([5]; NmcA AA 105 Met): -0.00142
Fi AVG (average fitness of replicates) ([5]; NmcA AA 105 Met): 0.024
Fi (relative fitness), Replicate 1 ([5]; NmcA AA 105 Phe): 0.169
Fi AVG (average fitness of replicates) ([5]; NmcA AA 105 Phe): 0.140
Significance of average fitness ([5]; NmcA AA 105 Phe): +
Fi (relative fitness), Replicate 1 ([5]; NmcA AA 105 Pro): -0.067
Fi AVG (average fitness of replicates) ([5]; NmcA AA 105 Pro): -0.060
Significance of average fitness ([5]; NmcA AA 105 Pro): -
Fi (relative fitness), Replicate 1 ([5]; NmcA AA 105 Ser): -0.066
Fi AVG (average fitness of replicates) ([5]; NmcA AA 105 Ser): -0.071
Significance of average fitness ([5]; NmcA AA 105 Ser): -
Fi (relative fitness), Replicate 1 ([5]; NmcA AA 105 Thr): -0.118
Fi AVG (average fitness of replicates) ([5]; NmcA AA 105 Thr): -0.120
Significance of average fitness ([5]; NmcA AA 105 Thr): -
Fi (relative fitness), Replicate 1 ([5]; NmcA AA 105 Trp): 0.105
Fi AVG (average fitness of replicates) ([5]; NmcA AA 105 Trp): 0.078
Fi (relative fitness), Replicate 1 ([5]; NmcA AA 105 Tyr): -0.154
Fi AVG (average fitness of replicates) ([5]; NmcA AA 105 Tyr): -0.163
Significance of average fitness ([5]; NmcA AA 105 Tyr): -
Fi (relative fitness), Replicate 1 ([5]; NmcA AA 105 Val): -0.043
Fi AVG (average fitness of replicates) ([5]; NmcA AA 105 Val): -0.035
WT abs Fi 1 (absolute fitness) ([5]; NmcA WT, replicate 1): 0.00454
WT abs Fi 2 (absolute fitness) ([5]; NmcA WT, replicate 2): 0.092
WT abs Fi 3 (absolute fitness) ([5]; NmcA WT, replicate 3): 0.017
